From the supplement of paper PMC10307832

Key:
Test in all cases: relative viability (nuclei count vs DMSO), 5 days (fraction); higher = more cells survive
[1] = compound: CC1(COc2ccc3c(c2)ncn3-c2ccc3cccc(N4CCC(N)CC4)c3n2)COC1 [Crenolanib] + COc1cccc2cc(-c3nc([C@H]4CC[C@H](C(=O)O)CC4)n4ncnc(N)c34)[nH]c12 [OSI-027] (partner 0.5 µM)
How it was run: (§1)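 One day after seeding in 1536-well plates, lung cancer cell lines were dosed by pin tool. Dosing was either single-drug or a fixed anchor-drug dose plus five library-drug doses (not always all listed) in √10 steps. After 5 days, nuclei were stained in one fix-and-stain step and counted on 4× images, and relative viability is the nuclei count of treated wells over that of vehicle wells, given as the median of duplicate plates.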

[2] = compound: CC1(COc2ccc3c(c2)ncn3-c2ccc3cccc(N4CCC(N)CC4)c3n2)COC1 [Crenolanib] + O=C(CCCCCCC(=O)Nc1ccccc1)NO [Vorinostat] (partner 1 µM)
How it was run: as §1

[3] = compound: O=C1NC(=O)[C@@H](c2cn3c4c(cccc24)CCC3)[C@@H]1c1c[nH]c2ccccc12 [Tivantinib] + CC1(C)CCC(c2ccc(Cl)cc2)=C(CN2CCN(c3ccc(C(=O)NS(=O)(=O)c4ccc(N[C@H](CCN5CCOCC5)CSc5ccccc5)c(S(=O)(=O)C(F)(F)F)c4)cc3)CC2)C1 [Navitoclax] (partner 0.5 µM)
How it was run: as §1

[4] = compound: O=C1NC(=O)[C@@H](c2cn3c4c(cccc24)CCC3)[C@@H]1c1c[nH]c2ccccc12 [Tivantinib] + C[C@]1(O)C[C@@H](c2nc(-c3ccc4ccc(-c5ccccc5)nc4c3)c3c(N)nccn32)C1 [Linsitinib] (partner 1 µM)
How it was run: as §1

Cell Line	relative viability ([1]; first compound 0.01 µM)	relative viability ([1]; first compound 0.03162 µM)	relative viability ([1]; first compound 0.1 µM)	relative viability ([1]; first compound 0.3162 µM)	relative viability ([1]; first compound 1 µM)	relative viability ([2]; first compound 0.01 µM)	relative viability ([2]; first compound 0.03162 µM)	relative viability ([2]; first compound 0.1 µM)	relative viability ([2]; first compound 0.3162 µM)	relative viability ([2]; first compound 1 µM)	relative viability ([3]; first compound 0.01 µM)	relative viability ([3]; first compound 0.03162 µM)	relative viability ([3]; first compound 0.1 µM)	relative viability ([3]; first compound 0.3162 µM)	relative viability ([4]; first compound 0.01 µM)	relative viability ([4]; first compound 0.03162 µM)	relative viability ([4]; first compound 0.1 µM)	relative viability ([4]; first compound 0.3162 µM)
NCI-H23	0.689	0.649	0.594	0.783	0.351	0.722	0.565	0.621	0.517	0.459	0.987	1.01	0.759	0.753	0.539	0.579	0.626	0.561
NCI-H322M	0.648	0.574	0.575	0.634	0.534	0.872	0.789	0.872	0.808	0.784	1.11	1.06	1.14	1.16	0.94	0.864	0.938	0.398
NCI-H441	0.929	0.6	0.507	0.539	0.463	0.98	0.705	0.657	1	0.832	0.737	0.869		0.439	0.383	0.508	0.563	0.463
NCI-H460	0.825	0.685	0.682	0.752	0.598	0.743	0.701	0.688	1.16	0.768	1.06	1.02	0.988	1.13	0.833	0.637	0.746	0.683
NCI-H520	0.245	0.284	0.311	0.306	0.318	0.703	0.641	0.733	0.765	0.652	1.12	1.17	0.995	1.1	1.13	1.11	0.812	0.91
NCI-H596	0.866	0.84	0.696	0.703	0.731	0.586	0.546	0.616	0.592	0.594	1.07	1.02	0.948	0.73	1.05	1.05	1.05	1.04
NCI-H647	0.588	0.623	0.79	0.709	0.705	0.631	0.66	0.366	0.679	0.722	1.06	1.27	1.07	0.758	1.15	1.19	1.12	1.19
NCI-H727	0.782	0.649	0.731	0.614	0.431	1.35	1.31	1.06	1.32	1.07	0.412	0.432	0.311		0.293	0.253	0.243	
NCI-H838	0.378	0.358	0.418	0.366	0.283	0.747	0.74	0.698	0.722	0.738	1.06	1.13	1.06	1.2	1.01	1.04	0.975	0.984
NCI-H1355	0.491	0.382	0.409	0.417	0.35	0.661	0.674	0.626	0.706	0.481	0.879	0.966	0.949	0.808	0.726	0.801	0.725	0.779
NCI-H1395	0.749	0.626	0.666	0.605	0.6	0.766	0.601	0.96	0.689	0.695	1.48	1.17	1.19	1.58	1.1	1.22	0.926	0.857
NCI-H1437	0.902	0.862	0.936	0.869	0.855	0.843	0.868	0.781	0.857	0.628	1.1	1.11	0.968	1.1	1.06	1.04	0.958	1.04
NCI-H1651	0.77	0.668	0.715	0.674	0.702	0.604	0.488	0.583	0.51	0.538	1.02	0.928	1.03	0.938	0.937	1.01	1.04	0.814
NCI-H1666	0.85	0.933	0.834	0.906	0.85	1.1	1.01	0.991	1.09	1.06	0.94	0.79	0.961	0.568	0.699	0.807	0.741	0.735
NCI-H1734	0.706	0.563	0.561	0.822	0.566	0.852	0.801	0.786	0.946	0.757	0.849	0.86	0.802	0.896	0.937	0.846	0.839	0.85
NCI-H1755	0.701	0.797	0.696	0.708	0.653	0.739	0.941	0.662	0.903	0.832	1.02	0.954	0.934	1.03	0.975	0.97	0.916	1.01
NCI-H1793	0.297	0.335	0.237	0.311	0.268	0.8	0.741	0.698	0.863	0.698	0.43	0.417	0.481		0.994	0.843	0.813	
NCI-H1915	0.583	0.646	0.592	0.634	0.417	0.529	0.516	0.487	0.511	0.459	0.789	0.796	0.771	0.798	1.1	1.14	1.12	1.08
NCI-H1944	0.554	0.408	0.416	0.397	0.346	0.586	0.591	0.491	0.693	0.4	0.975	0.997	0.992	0.778	1.07	1.06	1.01	0.583
NCI-H1975	0.717	0.792	0.668	0.682	0.778	0.729	0.684	0.638	0.71	0.678	1.03	1.07	1.12	1.16	0.875	0.919	0.938	0.598
NCI-H1993	0.527	0.526	0.509	0.567	0.592	0.956	0.728	0.777	0.797	0.729	1.04	0.929	1.06	0.681	0.742	0.863	0.734	0.721
NCI-H2009	0.766	0.636	0.623	0.688	0.581	0.847	0.73	0.692	0.697	0.7	1.08	1.22	1.2	1.16	1.16	1.19	1.15	1.17
NCI-H2023	0.466	0.426	0.378	0.434	0.292	0.705	0.531	0.617	0.813	0.634	1.01	1	0.937	1	0.657	0.737	0.575	0.461
NCI-H2085	0.707	0.745	0.706	0.865	0.709		0.764	0.809	0.781	0.759	1.18	1.28	1.2	0.939	0.877	1.07	0.986	0.879
NCI-H2087	0.664	0.642	0.471	0.546	0.467	0.657	0.779	0.968	0.664	0.877	1.14	0.981	0.972	1.03	0.962	0.795	0.951	0.944
NCI-H2126	0.727	0.691	0.751	0.721	0.644	0.8	0.836	0.691	0.815	0.684	0.822	0.821	0.846	0.713	0.713	0.677	0.671	0.578
NCI-H2228	0.6	0.495	0.513	0.687	0.578	0.721	0.768	0.633	0.687	0.871	1.15	0.71	0.837	1.01	0.639	0.538	0.519	0.627
NCI-H2347	0.326			0.482	0.427	0.629	0.807	0.383	0.707	0.645	0.868	0.718	0.678	0.755	0.996	0.843	1.02	1.01
NCI-H2405	0.672	0.64		0.671	0.655	1.03		0.93	1.12	0.706	1.17	0.766	0.973	0.305	1.16	1.02	0.941	0.739
NCI-H3122	1.01	0.974	0.962	1.17	1.06	0.976	0.938	0.765	1.14	0.796	1.02	0.971	0.974	1.01	0.939	0.946	0.973	0.968
